Source: US7560477B2, “Compounds active in sphingosine 1-phosphate signaling” (University of Virginia Patent Foundation, priority 2002, dated 2009)
Each block holds one compound with its values, some of them ahead of it.

Assays:
Format in all cases: biochemical
[1] = system: Recombinant S1P Receptors; assay: [γ-35S]GTP binding at recombinant S1P receptors (statements covering all receptors tested); conditions: at each receptor
Protocol: The same results were obtained regardless of whether the recombinant receptor used exogenous G proteins (HEK293T cells) or endogenous G proteins (RH7777 cells). […] The Sf9 cell and HEK293T cell membranes gave similar results. Furthermore, the activities measured in the broken cell assay predicted the responses seen in whole cell assays.
(§1) After incubating for 30 min at 30° C., bound radionuclide was separated from free by filtration through Whatman GF/C paper using a Brandel Cell Harvester (Gaithersburg, Md.).
(§2) Assay of cAMP accumulation was performed as described previously (See Im et al., J. Biol. Chem. 275, 14281-14286 (2000), the disclosure of which is incorporated herein). Assays were conducted on populations of 5×10^5 cells stimulated with 1 uM forskolin in the presence of the phosphodiesterase inhibitor […] (IBMX, 1 mM) for 15 min. cAMP was measured by automated radioimmunoassay. The GTPγS studies were performed using zebrafish S1P1 overexpressed rat RH-7777 and human hS1P1, hS1P2, hS1P3 and hS1P5 overexpressed human HEK293 cells.

hS1P1 = target: T1, hS1P1 (Homo sapiens, UniProt P21453); assay: [γ-35S]GTP binding, HEK293T cell membranes with S1P1 receptor
T1 construct: expressed in transfected cells; host or cells: HEK293T cells, transient transfection
T1 sequence (P21453 whole entry): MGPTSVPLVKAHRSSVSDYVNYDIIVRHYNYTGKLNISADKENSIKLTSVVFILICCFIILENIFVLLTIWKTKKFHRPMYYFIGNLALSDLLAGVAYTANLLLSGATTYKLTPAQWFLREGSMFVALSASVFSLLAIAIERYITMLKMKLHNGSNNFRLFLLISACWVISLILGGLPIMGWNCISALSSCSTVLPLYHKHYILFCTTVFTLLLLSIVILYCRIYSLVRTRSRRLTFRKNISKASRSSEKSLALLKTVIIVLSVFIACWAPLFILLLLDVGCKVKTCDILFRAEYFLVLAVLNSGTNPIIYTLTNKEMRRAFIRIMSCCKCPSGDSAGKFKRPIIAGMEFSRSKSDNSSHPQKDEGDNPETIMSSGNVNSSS
Protocol: (§3) Human or mouse S1P5 DNA was mixed with an equal amount of DNA encoding a rat Gi2R protein as well as DNAs encoding cow β1 and γ2 proteins and used to transfect monolayers of HEK293T cells using the calcium phosphate precipitate method. After 60 h, cells were harvested, and microsomes were prepared, aliquoted, and stored at −70° C. until use.
as §1, §2
(§4) An additional series of compounds was tested using the GTPCS binding assay described in Example 2 and in Im et al., J. Biol. Chem. 275, 14281-14286 (2000), the disclosure of which is incorporated herein).

hS1P3 = target: T2, hS1P3 (Homo sapiens, UniProt Q99500); assay: [γ-35S]GTP binding, HEK293T cell membranes with S1P3 receptor
T2 construct: expressed in transfected cells; host or cells: HEK293T cells, transient transfection
T2 sequence (Q99500 whole entry): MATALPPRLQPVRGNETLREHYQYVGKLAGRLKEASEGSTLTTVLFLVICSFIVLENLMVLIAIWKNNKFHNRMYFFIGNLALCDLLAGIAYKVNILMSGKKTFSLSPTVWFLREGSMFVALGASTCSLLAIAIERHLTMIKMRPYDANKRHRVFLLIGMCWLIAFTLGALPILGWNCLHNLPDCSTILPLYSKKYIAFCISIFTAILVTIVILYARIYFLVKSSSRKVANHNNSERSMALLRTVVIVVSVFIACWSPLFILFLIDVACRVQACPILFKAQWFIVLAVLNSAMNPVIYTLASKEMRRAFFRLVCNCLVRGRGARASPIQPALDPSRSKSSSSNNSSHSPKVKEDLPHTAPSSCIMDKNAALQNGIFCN
Protocol: as §3, §1, §2, §4

increase of GTPγS binding [1]: 2-5 fold
Compound: CCCCCCCCCCCCC/C=C/[C@@H](O)[C@@H](N)COP(=O)(O)O [Compound S1P, Sphingosine-1-phosphate]

less potent than enantiomer VPC22135 at S1P1 receptor (hS1P1): more than 1 log order
less potent than enantiomer VPC22135 at S1P3 receptor (hS1P3): more than 1 log order
Compound: CCCCCCCCCCCCCCOC(=O)[C@@H](N)COP(=O)(O)O [VPC22053]

potency compared with S1P at human S1P1 receptor (hS1P1; result in words): approached the potency of S1P
potency compared with S1P at human S1P3 receptor (hS1P3; result in words): approached the potency of S1P
Compound: CCCCCCCCCCCCCCNC(=O)[C@H](N)COP(=O)(O)O [VPC22135]

Compound: CCCCCCCCc1cccc(NC(=O)[C@H](N)COP(=O)(O)O)c1 [VPC23019]
antagonism at S1P1 (hS1P1; result in words, competition with S1P): antagonism
type of activity at the S1P3 receptor (inverse agonism / agonism) (hS1P3; result in words): inverse agonists

Compound: CCCCCCc1cccc(NC(=O)[C@H](N)COP(=O)(O)O)c1 [VPC23031]
type of activity at the S1P3 receptor (inverse agonism / agonism) (hS1P3; result in words): inverse agonists

Compound: CCCCCCCCCCc1cccc(NC(=O)[C@H](N)COP(=O)(O)O)c1 [VPC23069]
type of activity at the S1P3 receptor (inverse agonism / agonism) (hS1P3; result in words): agonism

Compound: CCCCCCCCCc1cccc(NC(=O)[C@H](N)COP(=O)(O)O)c1 [VPC23079]
type of activity at the S1P3 receptor (inverse agonism / agonism) (hS1P3; result in words): agonism

Compound: CCCCCCCCc1ccccc1NC(=O)[C@H](N)COP(=O)(O)O [VPC23089]
type of activity at the S1P3 receptor (inverse agonism / agonism) (hS1P3; result in words): inverse agonists
